Measured values from PMC11284787, “Ligand-Directed Labeling of the Adenosine A1 Receptor in Living Cells” (Journal of Medicinal Chemistry, 2024).

System: T1, endogenously expressed A1AR in DRG neurons
T1 construct: supporting the potential of the probe for selectively labeling endogenously expressed A1ARs; from tissue; host or cells: primary dorsal root ganglion neurons from adult male Sprague-Dawley rats
Test: Live-cell confocal imaging of dorsal root ganglion (DRG) neurons
Format: cell-based, rat
Description: Finally, we evaluated the utility of ligand-directed probe 11 to selectively label and visualize the localization and distribution of endogenously expressed A1AR in a physiologically relevant system. Studies have shown that activation of A1ARs expressed on peripheral nociceptive neurons produces analgesic effects,[14],[17],[71] thereby supporting the clinical potential of targeting the A1ARs for the treatment of neuropathic pain. Dorsal root ganglion (DRG) neurons are sensory cells involved in the transmission of pain and they are reported to express the A1AR[72]−[75] along with its cognate adenosine A2AAR[76]−[78] and A3AR[74],[79] receptor subtypes.
Figure 9 Live-cell confocal imaging of dorsal root ganglion (DRG) neurons labeled with SulfoCy5 by ligand-directed chemistry using probe 11 (250 nM). […] Left-hand side frames represent the SulfoCy5 channel, middle frames represent brightfield and right-hand side frames represent merged images from both channels. Images are representative of images acquired in four independent experiments. Scale bar: 10 μm. […]
plates (Nunc Lab-Tek, Thermo Fischer Scientific), pre-coated with Poly-D-Lysine, at 20,000 cells per well in DMEM/10% FCS. 24 h post seeding, cells were transiently transfected with human SNAP-A1. Transient transfections were carried out following manufacturer’s protocol: used FuGENE (Promega) HD at 3:1 ratio of reagent to cDNA with a total of 300 ng cDNA per well. Transfection solutions were made up in Gibco Opti-MEM (Thermo Fischer Scientific), incubated at RT for 5 min and added as 11 µL per well. Cells were incubated for additional 24 h at 37 OC, 5% CO2. Transient Transfection of NanoLuc-tagged human A 2AAR in HEK293T cell line was carried out as follows: 72 h prior to the experiment cells were removed from a confluent T75 flask and centrifuged. The pellet of cells was resuspended in 10 mL of fresh complete DMEM. […]

With `CCCCn1c(=O)c2[nH]c(C34CCC(C(=O)NCCNC(=O)CCNC(=O)c5ccc(OC(=O)CCCCC[N+]6=C(/C=C/C=C/C=C7/N(C)c8ccc(S(=O)(=O)O)cc8C7(C)C)C(C)(C)c7cc(S(=O)(=O)[O-])ccc76)c(F)c5)(CC3)CC4)nc2n(CCCC)c1=O` [Compound 11, 1-(6-(4-((3-((2-(4-(1,3-Dibutyl-2,6-dioxo-2,3,6,7-tetrahydro-1H-purin-8-yl)bicyclo[2.2.2]octane-1-carboxamido)ethyl)amino)-3-oxopropyl)carbamoyl)-2-fluorophenoxy)-6-oxohexyl)-3,3-dimethyl-2-((1E,3E)-5-((E)-1,3,3-trimethyl-5-sulfoindolin-2-ylidene)penta-1,3-dien-1-yl)-3H-indol-1-ium-5-sulfonate] the “labeling of live DRG neurons” value (250 nM, 2 h, adult Sprague-Dawley rat DRG) was “SulfoCy5-labeling”, the “labeling of DRG neurons after pretreatment with ZM241385” value (10 μM A2AAR-selective antagonist ZM241385) was “did not prevent the SulfoCy5 labeling” and the “fluorescence in DRG neurons after pretreatment with DPCPX” value (10 μM DPCPX pretreatment) was “negligible fluorescence signal”.
